Data on 25 compounds can be found in patent publication US9925189B2, “Heterocyclic receptor agonists for the treatment of diabetes and metabolic disorders” (CymaBay Therapeutics, Inc., priority 2006, dated 2018).

In this assay the target is T1, IC-GPCR2 (Homo sapiens, UniProt Q8TDV5, S309L).
T1 construct: expressed in transfected cells
T1 sequence (Q8TDV5 1-335 S309L): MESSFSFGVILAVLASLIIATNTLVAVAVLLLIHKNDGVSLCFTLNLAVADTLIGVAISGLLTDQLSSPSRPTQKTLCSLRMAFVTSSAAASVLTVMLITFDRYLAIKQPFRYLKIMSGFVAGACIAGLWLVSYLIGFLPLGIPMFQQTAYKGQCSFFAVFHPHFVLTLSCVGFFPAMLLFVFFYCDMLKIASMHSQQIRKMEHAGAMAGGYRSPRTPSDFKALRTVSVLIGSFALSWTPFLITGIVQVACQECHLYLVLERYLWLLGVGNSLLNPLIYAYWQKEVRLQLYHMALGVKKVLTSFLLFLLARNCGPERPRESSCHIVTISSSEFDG
Put plainly: Stimulation of cAMP in CHO cells stably expressing IC-GPCR2 (HTRF cAMP assay). Type of assay: cell-based. Conditions: 0.5 h, 30 minutes, IC-GPCR2 stably expressing CHO cells, read-out: Activity at 10 uM (% change in FRET signal from DMSO control). Here is the method: This assay was developed using a stable cell line expressing IC-GPCR-2, generated as follows. IC-GPCR2 (SEQ ID NO:1) was cloned into Gateway pDEST 40vector (Invitrogen), using the Gateway cloning system (invitrogen) according to the manufacturer's instructions. A stable cell line was generated by transfecting a 10 cm plate of CHO cells (source) with 8 ug of this construct using Transit-CHO transfection kit (Mirus). CHO cells were plated the day prior to transfection at a density of 3,000,000 cells/plate. Clones were selected using the antibiotic G418 at 500 ug/ml. 23 clones were picked and assayed for the expression of the receptor by measuring changes in intracellular cAMP levels in response to an IC-GPCR2 agonist.
To measure cAMP activity in response to IC-GPCR2 agonist, the clones were plated in 96 well plates at 17500 cells per well. On the day after plating, cells were incubated with the IC-CPCR2 agonist at […] for 30 minutes in Ham's F12 Media (Gibco) with 0.04% DMSO. cAMP was measured using the cAMP dynamic kit from Cis Bio (Bedford, Mass.) according to the manufacturer's instructions. Briefly, cells were lysed, and cAMP levels determined by competitive immunoassay using D2 labeled cAMP, and europium cryptate tagged anti cAMP antibody. When in close proximity, the D2 and europium cryptate undergo fluorescence resonance energy transfer (FRET), which is measured as a fluorescence ratio (665 nm/620 nm). Unlabelled cAMP in the cell lysate competed with the D2 labeled cAMP for the europium crypate labeled antibody. The resulting decrease in FRET signal corresponded to intracellular cAMP levels. Fluorescence was read on a BMG Labtech PHERAstar, software version 1.50.
Compounds were dissolved in 100% DMSO to a concentration of […] to provide stock solutions. To determine activity against IC-GPCR2, compounds were incubated with IC-GPCR2 stably expressing cells (described above), at 6-8 concentrations ranging from 0.00003 to 10 micromolar, in 96 well plates, in 50 ul of Hams F12 media for 30 minutes. Cells were plated at 17500 cells per well 1 day before running the assay. All compounds were also screened against the parental CHO cells. cAMP was measured using the cAMP dynamic kit from Cis Bio (Bedford, Mass.), according to the manufacturer's instructions. Briefly, cells were lysed and cAMP levels determined by competitive immunoassay using D2 labeled cAMP, and europium cryptate tagged anti cAMP antibody. When in close proximity, the D2 and europium cryptate undergo fluorescence resonance energy transfer (FRET), which is measured as a fluorescence ratio (665 nm/620 nm). Unlabelled cAMP in the cell lysate competed with the D2 labeled cAMP for the europium crypate labeled antibody. The resulting decrease in FRET signal corresponded to intracellular cAMP levels.
Activities of compounds disclosed in Table 1 and Table 2 below are expressed as the % change in FRET signal from DMSO control. “*” no activity observed when tested at 10 micromolar but no higher concentrations were tested. NT indicates the compound was not tested at the indicated concentration.
Background: TR-FRET usually uses a lanthanide donor and a delayed reading to cut background.
For the compound `C[C@H]1CN(C(=O)OC(C)(C)C)CC[C@H]1c1nc(COc2ccc(-n3cnnn3)cc2)cs1` (stereo in doubt) [Example 144, 3-Methyl-4-[4-(4-tetrazol-1-yl-phenoxymethyl)-thiazol-2-yl]-piperidine-1-carboxylic acid tert-butyl ester], the activation at 10 µM stood at 81%. In the case of `C[C@H]1CN(C(=O)OC(C)(C)C)CC[C@H]1c1nc(COc2ccc(-n3cnnn3)cc2F)cs1` (stereo in doubt) [Example 145, 4-[4-(2-Fluoro-4-tetrazol-1-yl-phenoxymethyl)-thiazol-2-yl]-3-methyl-piperidine-1-carboxylic acid tert-butyl ester], the activation at 10 µM came to 73%. Take `CCc1cnc(N2CC[C@@H](c3nc(COc4ccc(-n5cnnn5)cc4)cs3)[C@@H](C)C2)nc1` (stereo in doubt) [Example 199, 5-Ethyl-2-{3-methyl-4-[4-(4-tetrazol-1-yl-phenoxymethyl)-thiazol-2-yl]-piperidin-1-yl}-pyrimidine]: the activation at 10 µM is 78%. Next, `CCc1cnc(N2CC[C@@H](c3nc(COc4ccc(-n5cnnn5)cc4F)cs3)[C@@H](C)C2)nc1` (stereo in doubt) [Example 200, 5-Ethyl-2-{4-[4-(2-fluoro-4-tetrazol-1-yl-phenoxymethyl)-thiazol-2-yl]-3-methyl-piperidin-1-yl}-pyrimidine]: 82%; `C[C@H]1CN(c2ncc(Cl)cn2)CC[C@H]1c1nc(COc2ccc(-n3cnnn3)cc2F)cs1` (stereo in doubt) [Example 201, 5-Chloro-2-{4-[4-(2-fluoro-4-tetrazol-1-yl-phenoxymethyl)-thiazol-2-yl]-3-methyl-piperidin-1-yl}-pyrimidine]: 87%. As to `C[C@H]1CN(c2ncc(C(F)(F)F)cn2)CC[C@H]1c1nc(COc2ccc(-n3cnnn3)cc2F)cs1` (stereo in doubt) [Example 202, 2-{4-[4-(2-Fluoro-4-tetrazol-1-yl-phenoxymethyl)-thiazol-2-yl]-3-methyl-piperidin-1-yl}-5-trifluoromethyl-pyrimidine], the activation at 10 µM was found to be 83%. On to `CC(C)(C)OC(=O)N1CCC(c2nc(COc3ccc(S(C)(=O)=O)cc3)cs2)CC1` [Example 1, 4-[4-(4-Methanesulfonyl-phenoxymethyl)-thiazol-2-yl]-piperidine-1-carboxylic acid tert-butyl ester], for which the activation at 10 µM was found to be 69%. For `CC(C)(C)OC(=O)N1CCC(c2nc(COc3ccc(-n4ccnc4)cc3)cs2)CC1` [Example 2, 4-[4-(4-Imidazol-1-yl-phenoxymethyl)-thiazol-2-yl]-piperidine-1-carboxylic acid tert-butyl ester] the value was 50%. Regarding `CC(=O)Nc1ccc(OCc2csc(C3CCN(C(=O)OC(C)(C)C)CC3)n2)cc1` [Example 3, 4-[4-(4-Acetylamino-phenoxymethyl)-thiazol-2-yl]-piperidine-1-carboxylic acid tert-butyl ester], the activation at 10 µM was determined as 63%. For `CC(C)(C)OC(=O)N1CCC(c2nc(COc3ccc(-n4cncn4)cc3)cs2)CC1` [Example 5, 4-[4-(4-[1,2,4]Triazol-1-yl-phenoxymethyl)-thiazol-2-yl]-piperidine-1-carboxylic acid tert-butyl ester], the activation at 10 µM is 60%. Next, `CC(C)(C)OC(=O)N1CCC(c2nc(COc3ccc(N4CCCC4=O)cc3)cs2)CC1` [Example 6, 4-{4-[4-(2-Oxo-pyrrolidin-1-yl)-phenoxymethyl]-thiazol-2-yl}-piperidine-1-carboxylic acid tert-butyl ester]: 68%. As to `CC(C)(C)OC(=O)N1CCC(c2nc(COc3ccc(-n4cnnn4)cc3)cs2)CC1` [Example 7, 4-[4-(4-Tetrazol-1-yl-phenoxymethyl)-thiazol-2-yl]-piperidine-1-carboxylic acid tert-butyl ester], the activation at 10 µM came to 64%. For `CCc1cnc(N2CCC(c3nc(COc4ccc(S(N)(=O)=O)cc4)cs3)CC2)nc1` [Example 9, 4-{2-[1-(5-Ethyl-pyrimidin-2-yl)-piperidin-4-yl]-thiazol-4-ylmethoxy}-benzenesulfonamide], the activation at 10 µM worked out at 54%. As to `CCc1cnc(N2CCC(c3nc(COc4cccc(-n5cnnn5)c4)cs3)CC2)nc1` [Example 11], the activation at 10 µM is 34%. Regarding `CCc1cnc(N2CCC(c3nc(COc4ccc(-n5nnnc5C)cc4)cs3)CC2)nc1` [Example 12, 5-Ethyl-2-(4-{4-[4-(5-methyl-tetrazol-1-yl)-phenoxymethyl]-thiazol-2-yl}-piperidin-1-yl)-pyrimidine], the activation at 10 µM came to 70%.

Take `CCc1cnc(N2CCC(c3nc(COc4ccc(SC)c(C)c4)cs3)CC2)nc1` [Example 13]: the activation at 10 µM was determined as 94%.

On to `CCc1cnc(N2CCC(c3nc(COc4ccc(S(C)(=O)=O)c(C)c4)cs3)CC2)nc1` [Example 14, 5-Ethyl-2-{4-[4-(4-methanesulfonyl-3-methyl-phenoxymethyl)-thiazol-2-yl]-piperidin-1-yl}-pyrimidine], for which the activation at 10 µM came out at 84%.

Take `CCc1cnc(N2CCC(c3nc(COc4ccc5sc(=O)oc5c4)cs3)CC2)nc1` [Example 15, 6-{2-[1-(5-Ethyl-pyrimidin-2-yl)-piperidin-4-yl]-thiazol-4-ylmethoxy}-benzo[1,3]oxathiol-2-one]: the activation at 10 µM worked out at 55%. Turning to `CCc1cnc(N2CCC(c3nc(COc4ccc(SC(F)(F)F)cc4)cs3)CC2)nc1` [Example 16, 5-Ethyl-2-{4-[4-(4-trifluoromethylsulfanyl-phenoxymethyl)-thiazol-2-yl]-piperidin-1-yl}-pyrimidine], the activation at 10 µM came to 56%. With `CC(C)(C)OC(=O)N1CCC(c2nc(COc3ccc(-n4cnnn4)c(F)c3)cs2)CC1` [Example 17, 4-[4-(3-Fluoro-4-tetrazol-1-yl-phenoxymethyl)-thiazol-2-yl]-piperidine-1-carboxylic acid tert-butyl ester], the activation at 10 µM was 69%. Next, `CC(C)(C)OC(=O)N1CCC(c2nc(COc3ccc(S(C)(=O)=O)cc3F)cs2)CC1` [Example 18, 4-[4-(2-Fluoro-4-methanesulfonyl-phenoxymethyl)-thiazol-2-yl]-piperidine-1-carboxylic acid tert-butyl ester]: 72%. For `CC(C)(C)OC(=O)N1CCC(c2nc(COc3ccc(-n4cnnn4)cc3F)cs2)CC1` [Example 19, 4-[4-(2-Fluoro-4-tetrazol-1-yl-phenoxymethyl)-thiazol-2-yl]-piperidine-1-carboxylic acid tert-butyl ester] the value was 76%; for `CC(C)(C)OC(=O)N1CCC(c2nc(CS(=O)(=O)c3ccc(S(C)(=O)=O)cc3)cs2)CC1` [Example 21, 4-[4-(4-Methanesulfonyl-benzenesulfonylmethyl)-thiazol-2-yl]-piperidine-1-carboxylic acid tert-butyl ester], 23%.

For the compound `CC(C)OC(=O)N1CCC(c2nc(COc3ccc(S(C)(=O)=O)cc3)cs2)CC1` [Example 22, 4-[4-(4-Methanesulfonyl-phenoxymethyl)-thiazol-2-yl]-piperidine-1-carboxylic acid isopropyl ester], the activation at 10 µM amounted to 62%. As to `CS(=O)(=O)c1ccc(OCc2csc(C3CCN(C(=O)OCc4ccccc4)CC3)n2)cc1` [Example 23, 4-[4-(4-Methanesulfonyl-phenoxymethyl)-thiazol-2-yl]-piperidine-1-carboxylic acid benzyl ester], the activation at 10 µM worked out at 37%.
